The values below come from US20120065063A1, “3-Aryl-4-(2,6-dimethylbenzylidene)isoxazol-5(4H)-ones as Fungicides” (Bayer CropScience AG, priority 2010, published 2012).

Data set [1] has as its system Blumeria graminis f.sp. tritici. Description: Blumeria test (wheat)/protective. Format: in vivo. The settings on record: protective, 1000 ppm, evaluation 7 days after inoculation. As to the method:
Blumeria Test (Wheat)/Protective [table] To produce an appropriate active compound formulation, I part by weight of active compound is mixed with the specified amounts of solvent and emulsifier, and the concentrate is diluted with water to the desired concentration. To test for protective activity, young plants are sprayed with the preparation of active compound at the stated application rate. After the spray coating has dried on, the plants are dusted with spores of Blumeria graminis f.sp. tritici.

The test system of the next data set is Alternaria solani. Description: Alternaria test (tomato)/protective. Format: in vivo. The settings on record: protective, 500 ppm, evaluation 7 days after inoculation. As to the method:
Alternaria Test (Tomato)/Protective [table] To produce an appropriate active compound formulation, 1 part by weight of active compound is mixed with the specified amounts of solvent and emulsifier, and the concentrate is diluted with water to the desired concentration. To test for protective activity, young tomato plants are sprayed with the preparation of active compound at the stated application rate. 1 day after the treatment, the plants are inoculated with a spore suspension of Alternaria solani and then remain at 100% relative humidity and 20° C. for 24 h. The plants then remain at 96% relative atmospheric humidity and a temperature of 20° C.

A further data set relates to Sphaerotheca fuliginea. Description: Sphaerotheca test (cucumber)/protective. As to conditions: protective, 500 ppm, evaluation 7 days after inoculation. Format: in vivo. As to the method:
Sphaerotheca Test (Cucumber)/Protective [table] To produce an appropriate active compound formulation, 1 part by weight of active compound is mixed with the specified amounts of solvent and emulsifier, and the concentrate is diluted with water to the desired concentration. To test for protective activity, young cucumber plants are sprayed with the preparation of active compound at the stated application rate. 1 day after the treatment, the plants are inoculated with a spore suspension of Sphaerotheca fuliginea. The plants are then placed in a greenhouse at 70% relative atmospheric humidity and a temperature of 23° C.

The subject of a further data set is Plasmopara viticola. Nature of the data set: Plasmopara test (grapevine)/protective. Format: in vivo. The settings on record: protective, 100 ppm, evaluation 6 days after inoculation. As to the method: Plasmopara Test (Grapevine)/Protective [table] To produce an appropriate active compound formulation, I part by weight of active compound is mixed with the specified amounts of solvent and emulsifier, and the concentrate is diluted with water to the desired concentration. To test for protective efficacy, young plants are sprayed with the active compound formulation at the stated application rate. After the spray coating has dried on, the plants are inoculated with an aqueous spore suspension of Plasmopara viticola and then remain in an incubation cabin at about 20° C. and 100% relative atmospheric humidity for 1 day. The plants are then placed in a greenhouse at about 21° C. and about 90% atmospheric humidity for 4 days. The plants are then moistened and placed in an incubation cabin for 1 day.

In another data set the test system is Venturia inaequalis. Nature of the data set: Venturia test (apple)/protective. Format: in vivo. The settings on record: protective, 100 ppm, evaluation 10 days after inoculation. As to the method:
Venturia Test (Apple)/Protective [table] To produce an appropriate active compound formulation, 1 part by weight of active compound is mixed with the specified amounts of solvent and emulsifier, and the concentrate is diluted with water to the desired concentration. To test for protective efficacy, young plants are sprayed with the active compound formulation at the stated application rate. After the spray coating has dried on, the plants are inoculated with an aqueous conidia suspension of the apple scab pathogen Venturia inaequalis and then remain in an incubation cabin at about 20° C. and 100% relative atmospheric humidity for 1 day. The plants are then placed in the greenhouse at about 21° C. and a relative atmospheric humidity of about 90%.

The test system of the next data set is Leptosphaeria nodorum. Description: In vitro test for determining the ED50 value with Leptosphaeria nodorum. Format: cell-based. As to conditions: 50% inhibition of fungal growth, microtitre plates, 6 days, 20° C. As to the method:
In Vitro Test for Determining the ED50 Value with Leptosphaeria nodorum The cavities of 96-well microtitre plates are filled with 1.5 μl of a solution of the test compounds in DMSO. 150 μl of a glucose/peptone medium comprising the spores of the test fungus in a suitable concentration are introduced into each cavity. The test compounds in the microtitre cavities are used in concentrations of 20, 6, 2 and 0.6 ppm. The absorbance is determined photometrically at 620 nm. The microtitre plates are left at 20° C. and 85% relative atmospheric humidity for 6 days. Once the incubation time has passed, the growth of the test organisms is determined photometrically at a wavelength of 620 nm. The difference in absorbances before and after the incubation corresponds to the growth of the test fungi. Based on the difference of the absorbances at the various test concentrations and the difference of the absorbances of the untreated control, a dose/activity curve is calculated. The concentration required to inhibit fungal growth by 50% is determined and reported as ED50 value (=Effective Dose which causes 50% inhibition of growth) in ppm (=mg/l).

Data set [2] can be described thus: log P by HPLC on reversed-phase columns (EEC directive 79/831 Annex V.A8). The data set is classed as physicochemical. The settings on record: acidic range pH 2.7, 0.1% aqueous formic acid/acetonitrile. The protocol: The log P values were measured according to EEC directive 79/831 Annex V.A8 by HPLC (High Performance Liquid Chromatography) on reversed-phase columns (C 18), using the method below:
The determination was carried out in the acidic range at pH 2.7 using the mobile phases 0.1% aqueous formic acid and acetonitrile; linear gradient from 10% acetonitrile to 95% acetonitrile.

For the next data set, the system named is Spodoptera frugiperda. Description: Spodoptera frugiperda test (spray treatment). Format: in vivo. The settings on record: maize leaf discs, 500 g/ha. As to the method: Spodoptera frugiperda Test (Spray Treatment) [table] To produce a suitable preparation of active compound, 1 part by weight of active compound is mixed with the stated amounts of solvents and emulsifier, and the concentrate is diluted with emulsifier-containing water to the desired concentration. Discs of maize leaves (Zea mays) are sprayed with an active compound preparation of the desired concentration and, after drying, populated with caterpillars of the armyworm (Spodoptera frugiperda). After the desired period of time, the effect in % is determined. 100% means that all caterpillars have been killed; 0% means that none of the caterpillars have been killed.

For a further data set, the system named is Meloidogyne incognita. Description: Meloidogyne test (spray treatment). The settings on record: lettuce, 20 ppm. The data set is classed as in vivo. As to the method: Meloidogyne Test (Spray Treatment) [table] To prepare a suitable active compound preparation, 1 part by weight of active compound is mixed with the stated amount of solvent and the concentrate is diluted with water to the desired concentration. Containers are filled with sand, solution of active compound, Meloidogyne incognita egg/larvae suspension and lettuce seeds. The lettuce seeds germinate and the plants develop. On the roots, galls are formed. After the desired period of time, the nematicidal action is determined in % by the gall formation. 100% means that no galls have been found; 0% means that the number of galls on the treated plants corresponds to that of the untreated control.

Consider `O=C1ON=C(c2ccccc2)C1=Cc1ccccc1` [Compound A-1], for which the values for the efficacy (in data set [1]; in the data set on Alternaria solani; with Sphaerotheca fuliginea) were 29%, 0% and 30%, respectively.
For the molecule `O=C1ON=C(c2ccccc2)C1=Cc1ccc(Cl)cc1` [Compound A-2], the efficacy in data set [1] came to 29%; with Plasmopara viticola it was 38%; in the data set on Venturia inaequalis, 16%; in the data set with Alternaria solani, 0%; in the data set on Sphaerotheca fuliginea it was 20%.
Taken in the same sequence, the figures for `CC1=NOC(=O)C1=Cc1ccccc1` [Compound A-3] were 57%, 55%, 48%, 0% and 30%.
In the case of `CC1=NOC(=O)C1=Cc1ccc(C)cc1` [Compound A-4], the efficacy was determined as 43% in [1]; 35% with Plasmopara viticola; 9% in the data set on Venturia inaequalis; 0% with Alternaria solani; 30% in the data set with Sphaerotheca fuliginea. The molecule further gave an ED50 in the data set on Leptosphaeria nodorum of 14 ppm.
As for `COc1ccc(C=C2C(=O)ON=C2C)cc1` [Compound A-5], the efficacy is listed as 29% in [1]; 40% in the data set with Plasmopara viticola; 59% in the data set on Venturia inaequalis; 0% with Alternaria solani; 40% in the data set with Sphaerotheca fuliginea.
Take `O=C1ON=C(c2ccccc2)C1=Cc1ccccc1Cl` [Compound A-6]: the efficacy in data set [1] is given as 29%; in the data set on Plasmopara viticola, 38%; in the data set with Venturia inaequalis it was 14%; in the data set on Alternaria solani, 0%; with Sphaerotheca fuliginea, 50%.
Taken in the same sequence, the figures for `CC1=NOC(=O)C1=Cc1ccc(N(C)C)cc1` [Compound A-7] were 0%, 45%, 0%, 0% and 10%.
Taken in the same sequence, the figures for `CC1=NOC(=O)/C1=C\c1ccco1` [Compound A-8] were 29%, 28%, 6%, 0% and 0%.
A word on the log P: it is a log measure of how a compound divides between an organic and an aqueous phase. Read a low log P as lower lipophilicity. Regarding `Cc1cc(C)c(C=C2C(=O)ON=C2c2c(F)cccc2F)c(C)c1` [Compound I-24], in data set [2], the “log P” value was determined as 4.09. In addition, in the data set with Spodoptera frugiperda, the “activity (caterpillars killed)” value is recorded as ≥ 80%.
As to `Cc1cc(C)c(C=C2C(=O)ON=C2c2ccc(Cl)cc2)c(C)c1` [Compound I-70], the log partition coefficient (log P) in data set [2] is given as 4.50. Besides, in the data set on Meloidogyne incognita, the “activity (nematicidal action by gall formation)” value is recorded as ≥ 80%.
